Test results published in US11000537B2, “Composition comprising novel ginsenoside” (AMOREPACIFIC CORPORATION, priority 2018, dated 2021).

How the values were obtained:
α-glucosidase = α-glucosidase enzyme activity inhibition; format: biochemical; conditions: Test Example 1, FIG. 12; ginseng seed ginsenosides compared
Procedure: (§1) As a polysaccharide degrading enzyme, pancreatic α-amylase and α-glucosidase were purchased from Sigma, and the enzyme activity of novel ginsenoside GS #10, which is an example of the present disclosure, isolated from Ginseng seed extract and ginsenosides GS #01-GS #06, which are comparative examples of the present disclosure, was measured. In order to measure α-amylase activity, enzyme solution was prepared by dissolving BSA 0.1 g, 0.01 g/L NaN3, α-amylase 0.2857 g in 50 mL of PBS (phosphate buffered saline), and 5 mM of p-nitrophenyl-α-D-maltopentoglycoside was dissolved in another PBS to make a substrate solution. 0.1 mL of the test substance was added to 0.5 mL of the enzyme solution, and then the initial absorbance was measured at 405 nm. After adding 0.5 mL of the substrate solution and reacting it for 5 minutes, the absorbance was measured again. The change in enzyme activity was measured by the difference in absorbance between the two reactions. The method for measuring α-glucosidase activity is the same as the method for measuring α-amylase activity, and differs only in α-glucosidase and substrate (p-nitrophenyl-α-D-glucopyranoside). As a positive control to observe the inhibition of enzyme activity, acarbose, which is an α-amylase inhibitor and α-glucosidase inhibitor derived from wheat seed sold by Sigma, was used.

adipocyte cell 3T3-L1 = experiment: fat accumulation in adipocytes (Oil-red O staining); format: cell-based; conditions: 10 μM during 48 hours of differentiation; FIG. 34
Procedure: The adipocyte cell 3T3-L1 purchased from the International Center for Biological Resources (ATCC) were placed in Dulbecco's Modified Eagle's Medium (Sigma) to which 10% fetal bovine serum (Hyclone) and 1% penicillin/streptomycin (Sigma) were added, and cultured in a 5% CO2 incubator. In order to differentiate preadipocytes into adipocytes, the cells were filled in a culture plate and cultured. After 48 hours, the cells were replaced with Dulbecco's modified eagle medium (DMEM) to which 10% of fetal bovine serum (Hyclone), 0.5 mM of 3-isobutyl-1-methylxanthine (Sigma), 1 μM of dexamethasone (Sigma), 5 μg/ml of insulin (Sigma), 1% of penicillin/streptomycin (Sigma) were added and further cultured for 48 hours. […] As a control to confirm the effect of inhibiting adipocyte differentiation, 20 μM of bisphenol A diglycidyl ether (BADGE) (Sigma), a PPARγ (Peroxisome proliferator-activated receptor gamma) antagonist, was used. Thereafter, the cells were further cultured for 10 days while being replaced with a medium containing 10% FBS and 5 μg/ml insulin and 1% penicillin/streptomycin at two-day intervals to induce adipocyte differentiation.
Differentiated adipocytes treated with each of the seven types of ginsenosides were fixed with formaldehyde solution (Sigma), stained with Oil-red O staining solution (Sigma), and then dissolved with isopropanol (Sigma), and then the amount of the stained fat was quantified by measuring at 490 nm absorbance.

pancreatic lipase = pancreatic lipase activity inhibition (Pancreatic Lipase Activity Assay Kit); format: cell-based; conditions: 10 μM, 1 hour; FIG. 22
Procedure: The hepatocyte cell line HepG2 purchased from the International Center for Biological Resources (ATCC) were placed in Dulbecco's Modified Eagle's Medium (Sigma) to which 10% fetal bovine serum (Hyclone) and 1% penicillin/streptomycin (Sigma) were added, and cultured in a 5% CO2 incubator. As a positive control for the cells, Xenical (Sigma), which are used as pancreatic lipase inhibitors and anti-obesity therapeutic agents, and seven types of ginsenosides (GS #01-GS #06, GS #10; 10 μM each) extracted from Ginseng seed were treated for 1 hour. In addition, Pancreatic Lipase Activity Assay Kit (Abcam) was used to observe the inhibition of each lipase activity.

3T1-L1 adipocytes = experiment: glucose uptake (glucose transport) in differentiated adipocytes; format: cell-based; conditions: 10 μM, FIG. 13
Procedure: 3T1-L1 adipocytes (ATCC) were purchased, and 10% bovine calf serum (Hyclone) and 1% penicillin/streptomycin (Sigma) were added to a Dulbecco's Modified Eagle's Medium (Sigma) and cultured in a 5% CO2 culture medium. In order to differentiate preadipocyte cells into adipocytes, a culture plate was filled with cells and cultured for 48 hours. The cells were then replaced in a DMEM medium to which 10% fetal bovine serum (FBS) (Hyclone), 0.5 mM 3-isobutyl-1-methylxanthine (Sigma), 1 μM dexamethasone (Sigma), 5 μg/ml insulin (Sigma), and 1% penicillin/streptomycin were added and cultured for another 48 hours. Thereafter, the cells were further cultured for 14 days while being replaced in a medium containing 10% FBS, 5 μg/ml insulin, and 1% penicillin/streptomycin at two-day intervals to obtain fully differentiated adipocytes. […] As a positive control for measuring glucose uptake in blood, Metformin (Sigma; 10 μM), which is used as a diabetic therapeutic agent, was used, and novel ginsenoside GS #10, which is an example of the present disclosure, isolated from Ginseng seed extract and ginsenosides GS #01-GS #06, which are comparative examples of the present disclosure, were treated with 10 μM each. In addition, both insulin-dependent/independent glucose transport capacity was measured by treating insulin together, which may promote glucose uptake.

pancreatic α-amylase = biological target: T1, pancreatic α-amylase (Sus scrofa, UniProt P00690); experiment: α-amylase enzyme activity inhibition; format: biochemical; conditions: Test Example 1, FIG. 11; ginseng seed ginsenosides compared
T1 construct: purchased Sigma
T1 sequence (P00690 16-511): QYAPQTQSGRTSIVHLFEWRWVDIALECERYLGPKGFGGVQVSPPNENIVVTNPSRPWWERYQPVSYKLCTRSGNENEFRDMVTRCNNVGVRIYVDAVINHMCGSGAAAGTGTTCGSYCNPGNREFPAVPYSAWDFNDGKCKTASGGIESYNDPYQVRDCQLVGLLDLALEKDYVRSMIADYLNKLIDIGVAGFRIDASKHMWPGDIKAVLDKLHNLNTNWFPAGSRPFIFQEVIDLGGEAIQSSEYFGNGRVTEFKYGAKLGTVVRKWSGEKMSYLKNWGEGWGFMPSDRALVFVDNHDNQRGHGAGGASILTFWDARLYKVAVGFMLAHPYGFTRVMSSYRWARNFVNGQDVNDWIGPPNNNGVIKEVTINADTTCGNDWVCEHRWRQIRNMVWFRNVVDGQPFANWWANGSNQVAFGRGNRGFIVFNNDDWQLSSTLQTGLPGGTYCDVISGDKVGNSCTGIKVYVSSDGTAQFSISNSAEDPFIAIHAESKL
Procedure: as §1

[1] = combined with insulin (+insulin)
[2] = material-only treatment (−insulin)

SMILES | α-glucosidase activity inhibitory effect (α-glucosidase) | fat accumulation inhibitory effect in adipocytes (adipocyte cell 3T3-L1) | pancreatic lipase activity inhibitory effect (pancreatic lipase) | glucose transport promotion (3T1-L1 adipocytes; [1]) | glucose transport promotion (3T1-L1 adipocytes; [2]) | α-amylase activity inhibitory effect (pancreatic α-amylase)
CC(C)=CCC[C@](C)(O[C@@H]1O[C@H](CO[C@@H]2O[C@H](CO)[C@@H](O)[C@H](O)[C@H]2O)[C@@H](O)[C@H](O)[C@H]1O)[C@H]1CC[C@]2(C)[C@@H]1[C@H](O)C[C@@H]1[C@@]3(C)CC[C@H](O[C@@H]4O[C@H](CO)[C@@H](O)[C@H](O)[C@H]4O[C@@H]4O[C@H](CO)[C@@H](O)[C@H](O)[C@H]4O)C(C)(C)[C@@H]3CC[C@]12C [GS #05, ginsenoside Rb1, reference compound] | no activity inhibitory effect | except some (GS #05, GS #06) of seven types of ginsenosides (GS #01-GS #06, GS #10; 10 μM each) extracted from Ginseng seeds, all of them was observed to reduce the amount of fats in adipocytes | except for some of the previously known ginsenosides (GS #05, GS #06), all showed a significant inhibitory effect | – | – | –
CC(C)=CCC[C@](C)(O)[C@H]1CC[C@]2(C)[C@@H]1[C@H](O)C[C@@H]1[C@@]3(C)CC[C@H](O)C(C)(C)[C@@H]3[C@@H](O[C@@H]3O[C@H](CO)[C@@H](O)[C@H](O)[C@H]3O[C@@H]3O[C@@H](C)[C@H](O)[C@@H](O)[C@H]3O)C[C@]12C [GS #02, ginsenoside Rg2] | – | – | – | further increase by insulin treatment | statistically significant glucose transport promotion | –
CC(C)=CCC[C@](C)(O[C@@H]1O[C@H](CO)[C@@H](O)[C@H](O)[C@H]1O)[C@H]1CC[C@]2(C)[C@@H]1[C@H](O)C[C@@H]1[C@@]3(C)CC[C@H](O)C(C)(C)[C@@H]3[C@@H](O[C@@H]3O[C@H](CO)[C@@H](O)[C@H](O)[C@H]3O)C[C@]12C [GS #01, ginsenoside Rg1] | – | – | – | further increase by insulin treatment | statistically significant glucose transport promotion | –
CN(C)C(=N)N=C(N)N [metformin, Metformin] | – | – | – | the glucose transport is further increased as compared with the insulin-only treatment group | – | –
CC(C)=CCC[C@](C)(O[C@@H]1O[C@H](CO)[C@@H](O)[C@H](O)[C@H]1O)[C@H]1CC[C@]2(C)[C@@H]1[C@H](O)C[C@@H]1[C@@]3(C)CC[C@H](O)C(C)(C)[C@@H]3[C@@H](O[C@@H]3O[C@H](CO)[C@@H](O)[C@H](O)[C@H]3O[C@@H]3O[C@@H](C)[C@H](O)[C@@H](O)[C@H]3O)C[C@]12C [GS #03, ginsenoside Re] | – | – | – | further increase by insulin treatment | statistically significant glucose transport promotion | –
CC(C)=CCC[C@](C)(O[C@@H]1O[C@H](CO[C@@H]2OC[C@H](O)[C@H](O)[C@H]2O)[C@@H](O)[C@H](O)[C@H]1O)[C@H]1CC[C@]2(C)[C@@H]1[C@H](O)C[C@@H]1[C@@]3(C)CC[C@H](O[C@@H]4O[C@H](CO)[C@@H](O)[C@H](O)[C@H]4O[C@@H]4O[C@H](CO)[C@@H](O)[C@H](O)[C@H]4O)C(C)(C)[C@@H]3CC[C@]12C [GS #06, ginsenoside Rb2, reference compound] | no activity inhibitory effect | except some (GS #05, GS #06) of seven types of ginsenosides (GS #01-GS #06, GS #10; 10 μM each) extracted from Ginseng seeds, all of them was observed to reduce the amount of fats in adipocytes | except for some of the previously known ginsenosides (GS #05, GS #06), all showed a significant inhibitory effect | – | – | all except GS #06 showed significant activity inhibitory effect
